Consider 8 compounds from patent US20230069722A1, “TUBULYSINS AND PROTEIN-TUBULYSIN CONJUGATES” (priority 2020, published 2023).

Like-named read-outs stand apart in the source and are kept apart here.

The test system of test [1] is SK-BR-3 human breast adenocarcinoma cell line. Briefly: SK-BR-3 anti-proliferation / cell kill assay (CellTiter-Glo, 144 hrs). It is filed as cell-based. To be noted: for IC50: Homo sapiens, SK-BR-3, read-out: SK-BR-3 IC50; for SK-BR-3 Ratio to Xa = H: IC50 ratio to parent payload with Xa = H. Here is the method:
Anti-proliferation assays were performed using a SK-BR-3 human breast adenocarcinoma (pleural effusion) cell line. The cells were grown in McCoy's 5a Medium supplemented with 10% FBS, penicillin/streptomycin and L-glutamine. Cells were seeded 1000/well in 96-well plate in 80ul complete growth media one day prior to adding ADCs and incubated at 37° C. 5% CO2 overnight.
The ADCs were 1:3 serially diluted 10 points in assay media (Opti-MEM+0.1% BSA). The concentrations of the testing ADCs cover the range of 1 nM to ˜1000 nM and also starting from different concentrations based on the cell killing potency in order to see EC50 covers, leaving the last well (10th) as blank (no ADC or compound). ADCs were first 1:3 serially diluted 10 points in DMSO starting from […] (the starting concentration of each ADC is different according to the EC50s), leaving the last well as blank (containing only DMSO). 10 μl DMSO-diluted compound was transferred to 990 μl assay media (Opti-MEM+0.1% BSA) in a 96-well deep well dilution plate. 20 μl assay media-diluted ADC was added to cells. Cells were incubated at 37° C. […] for 6 days (144 hrs). Plates were developed by adding 100 μl CTG reagent/well to the cells CellTiter-Glo®, from Promega, Cat. No G7573), shaken at room temperature for 10 min, sealed with white adhesive bottom seal and luminescence was read with Envision. Cell kill %=[1−(T144sample−T144blank)/(T144DMSO−T144blank)]×100%, wherein T144 is the data at 144 hours.
The table below provides the drug-antibody ratios (DARs) for conjugates 1-37, along with the EC50 results from the SKBR assays for the same conjugates. The following linker-payloads (from Table P1) were prepared as described in PCT/US2019/068185, the content of which is hereby incorporated by reference in its entirety: LP4-Ve, LP4-Ve, LP25-Ve, LP25-Ve, LP26-Ve, LP26-Ve, LP17-Ve, LP13-Ve, LP19-Ve, LP2-Ve, LP21-Ve, LP6-Vb, LP24-Vb, LP23-Vb, and LP15-VIh.
For orientation: Cellular ATP, detected with luciferase, serves as a proxy for viable cell number.

The next test has as its system HCT15 cells. As to the kind of experiment: MDR cell based killing assay, HCT15 cells with or without Verapamil (CellTiter-Glo). On the set-up: species or system human. To be noted: for IC50: Homo sapiens; for HCT-15 with verapamil Ratio to Xa = H / HCT-15 Ratio to Xa = H: IC50 ratio to parent payload with Xa = H; for HCT-15 Ratio to Xa = H: without verapamil. In outline: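 CellTiter-Glo luminescence after 5-day exposure gave viability of 1000 HCT15 cells per well, grown in RPMI/10% FBS ± 5 ug/mL Verapamil. Payload tested from 100 nM down to 15 pM in threefold steps; four-parameter logistic IC50 in molar; MDR shift expressed as −Verapamil/+Verapamil IC50 ratio.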

Where [2] appears, read: HCT-15, read-out: HCT-15 with verapamil IC50.

Regarding `CCCCCCN(C(=O)[C@@H](NC(=O)[C@H]1CCCCN1C)[C@@H](C)CC)[C@H](C[C@@H](OCC)c1nc(C(=O)N[C@@H](Cc2ccc(NC(=O)CN)c(F)c2)CC(C)(C)C(=O)O)cs1)C(C)C` [Compound P26, (4S)-5-[4-(2-aminoacetamido)-3-fluorophenyl]-4-({2-[(1R,3R)-1-ethoxy-3-[(2S,3S)—N-hexyl-3-methyl-2-{[(2R)-1-methylpiperidin-2-yl]formamido}pentanamido]-4-methylpentyl]-1,3-thiazol-4-yl}formamido)-2,2-dimethylpentanoic Acid], in test [1], the IC50 (in general, the concentration that gives 50% inhibition) is 50 pM and the “SK-BR-3 Ratio to Xa = H” value came out at 2.6x. In addition, in the test on HCT15 cells (HCT-15, read-out: HCT-15 IC50), the 50% inhibitory concentration (IC50) was found to be 250 pM. In addition, in the test on HCT15 cells (setting [2]), the IC50 worked out at 50 pM. Besides, in the test with HCT15 cells, the “HCT-15 with verapamil Ratio to Xa = H” value is 2.8x and the “HCT-15 Ratio to Xa = H” value is on record as 4.9x.
Take `CCCCCCN(C(=O)[C@@H](NC(=O)[C@H]1CCCCN1)[C@@H](C)CC)[C@H](C[C@@H](OC(C)=O)c1nc(C(=O)N[C@@H](Cc2ccc(NC(=O)CN)c(F)c2)CC(C)(C)C(=O)O)cs1)C(C)C` [Compound P27, (4S)-4-({2-[(1R,3R)-1-(acetyloxy)-3-[(2S,3S)—N-hexyl-3-methyl-2-[(2R)-piperidin-2-ylformamido]pentanamido]-4-methylpentyl]-1,3-thiazol-4-yl}formamido)-5-[4-(2-aminoacetamido)-3-fluorophenyl]-2,2-dimethylpentanoic Acid]: the IC50 in test [1] turned out to be 110 pM; with HCT15 cells (HCT-15, read-out: HCT-15 IC50), 1480 pM; in the test on HCT15 cells (setting [2]), 90 pM. For the same compound, the “SK-BR-3 Ratio to Xa = H” value in test [1] stood at 3.9x. In addition, the “HCT-15 with verapamil Ratio to Xa = H” value in the test on HCT15 cells is 3.8x. The “HCT-15 Ratio to Xa = H” value in the test with HCT15 cells is listed as 6.4x.
Consider `CCCCCCN(C(=O)[C@@H](NC(=O)[C@H]1CCCCN1C)[C@@H](C)CC)[C@H](C[C@@H](O)c1nc(C(=O)N[C@@H](Cc2ccc(NC(=O)CN)c(F)c2)CC(C)(C)C(=O)O)cs1)C(C)C` [Compound P24, (4S)-5-[4-(2-aminoacetamido)-3-fluorophenyl]-4-({2-[(1R,3R)-3-[(2S,3S)—N-hexyl-3-methyl-2-{[(2R)-1-methylpiperidin-2-yl]formamido}pentanamido]-1-hydroxy-4-methylpentyl]-1,3-thiazol-4-yl}formamido)-2,2-dimethylpentanoic Acid], for which, in test [1], the IC50 was 860 pM and the “SK-BR-3 Ratio to Xa = H” value is listed as 22x. In the test with HCT15 cells (HCT-15, read-out: HCT-15 IC50), the IC50 was found to be 15500 pM. The IC50 in the test on HCT15 cells (setting [2]) was 820 pM. Besides, in the test with HCT15 cells, the “HCT-15 with verapamil Ratio to Xa = H” value was determined as 3.2x and the “HCT-15 Ratio to Xa = H” value was found to be 5.2x.
Turning to `CCCCCCN(C(=O)[C@@H](NC(=O)[C@H]1CCCCN1)[C@@H](C)CC)[C@H](C[C@@H](OCC)c1nc(C(=O)N[C@@H](Cc2ccc(NC(=O)CN)cc2)CC(C)(C)C(=O)O)cs1)C(C)C` [Compound P32, (4S)-5-[4-(2-aminoacetamido)phenyl]-4-({2-[(1R,3R)-1-ethoxy-3-[(2S,3S)—N-hexyl-3-methyl-2-[(2R)-piperidin-2-ylformamido]pentanamido]-4-methylpentyl]-1,3-thiazol-4-yl}formamido)-2,2-dimethylpentanoic Acid], the concentration for half-maximal inhibition (IC50) is above 1000 pM in test [1]; above 100000 pM in the test with HCT15 cells (HCT-15, read-out: HCT-15 IC50); above 100000 pM in the test with HCT15 cells (setting [2]).
Take `CCCCCCN(C(=O)[C@@H](NC(=O)[C@H]1CCCCN1C)[C@@H](C)CC)[C@H](C[C@@H](OC(C)=O)c1nc(C(=O)N[C@@H](Cc2ccc(NC(=O)CN)c(F)c2)CC(C)(C)C(=O)O)cs1)C(C)C` [Compound P25, (4S)-4-({2-[(1R,3R)-1-(acetyloxy)-3-[(2S,3S)—N-hexyl-3-methyl-2-{[(2R)-1-methylpiperidin-2-yl]formamido}pentanamido]-4-methylpentyl]-1,3-thiazol-4-yl}formamido)-5-[4-(2-aminoacetamido)-3-fluorophenyl]-2,2-dimethylpentanoic Acid]: in test [1], the half-inhibitory concentration (IC50) amounted to 30 pM and the “SK-BR-3 Ratio to Xa = H” value came out at 1.9x. In the test with HCT15 cells (HCT-15, read-out: HCT-15 IC50), the IC50 was 80 pM. The 50% inhibitory concentration (IC50) in the test on HCT15 cells (setting [2]) came out at 40 pM. In the test with HCT15 cells, the “HCT-15 with verapamil Ratio to Xa = H” value is recorded as 4.0x and the “HCT-15 Ratio to Xa = H” value is 4.0x.
With `CCCCCCN(C(=O)[C@@H](NC(=O)[C@H]1CCCCN1C)[C@@H](C)CC)[C@H](C[C@@H](OC(C)=O)c1nc(C(=O)N[C@@H](Cc2ccc(NCCN)cc2)CC(C)(C)C(=O)O)cs1)C(C)C` [Compound P30, (4S)-4-({2-[(1R,3R)-1-(acetyloxy)-3-[(2S,3S)—N-hexyl-3-methyl-2-{[(2R)-1-methylpiperidin-2-yl]formamido}pentanamido]-4-methylpentyl]-1,3-thiazol-4-yl}formamido)-5-{4-[(2-aminoethyl)amino]phenyl}-2,2-dimethylpentanoic Acid], in test [1], the IC50 amounted to 450 pM and the “SK-BR-3 Ratio to Xa = H” value is 34x. Besides, the IC50 in the test with HCT15 cells (HCT-15, read-out: HCT-15 IC50) was 2640 pM. In addition, the IC50 with HCT15 cells (setting [2]) came out at 420 pM. Besides, in the test with HCT15 cells, the “HCT-15 with verapamil Ratio to Xa = H” value was 22x and the “HCT-15 Ratio to Xa = H” value came out at 155x.
As to `CCCCCCN(C(=O)[C@@H](NC(=O)[C@H]1CCCCN1C)[C@@H](C)CC)[C@H](C[C@@H](OC(C)=O)c1nc(C(=O)N[C@@H](Cc2ccc(NC(=O)CN)cc2)CC(C)(C)C(=O)O)cs1)C(C)C` [Compound P28, (4S)-4-({2-[(1R,3R)-1-(acetyloxy)-3-[(2S,3S)—N-hexyl-3-methyl-2-{[(2R)-1-methylpiperidin-2-yl]formamido}pentanamido]-4-methylpentyl]-1,3-thiazol-4-yl}formamido)-5-[4-(2-aminoacetamido)phenyl]-2,2-dimethylpentanoic Acid], in test [1], the IC50 stood at 30 pM and the “SK-BR-3 Ratio to Xa = H” value is 2.5x. Also, in the test with HCT15 cells (HCT-15, read-out: HCT-15 IC50), the IC50 is 170 pM. Also, the IC50 in the test with HCT15 cells (setting [2]) was 110 pM. Also, in the test with HCT15 cells, the “HCT-15 with verapamil Ratio to Xa = H” value stood at 5.8x and the “HCT-15 Ratio to Xa = H” value came to 6.9x.
With `CCCCCCN(C(=O)[C@@H](NC(=O)[C@H]1CCCCN1C)[C@@H](C)CC)[C@H](C[C@@H](OCC)c1nc(C(=O)N[C@@H](Cc2ccc(NC(=O)CN)cc2)CC(C)(C)C(=O)O)cs1)C(C)C` [Compound P31, (4S)-5-[4-(2-aminoacetamido)phenyl]-4-({2-[(1R,3R)-1-ethoxy-3-[(2S,3S)—N-hexyl-3-methyl-2-{[(2R)-1-methylpiperidin-2-yl]formamido}pentanamido]-4-methylpentyl]-1,3-thiazol-4-yl}formamido)-2,2-dimethylpentanoic Acid], in test [1], the half-maximal inhibitory concentration (IC50) came out at 70 pM and the “SK-BR-3 Ratio to Xa = H” value was found to be 2.4x. In the test with HCT15 cells (HCT-15, read-out: HCT-15 IC50), the IC50 came to 810 pM. In addition, the IC50 in the test with HCT15 cells (setting [2]) was found to be 290 pM. Further, in the test with HCT15 cells, the “HCT-15 with verapamil Ratio to Xa = H” value is listed as 4.3x and the “HCT-15 Ratio to Xa = H” value was determined as 9.7x.
